Data set [1] relates to MON (INI1−/−) rhabdoid tumor cells. The data set is described as follows: MTS survival assay of rhabdoid tumor cells. The class given is cell-based. Here is the method: FIG. 1A-1D. Effect of 4HPR derivatives with phenyl group substitutions on survival of rhabdoid tumors cells. MON (INI1−/−) cells were treated with serial dilutions of the 4HPR, ATRA and 4HPR derivatives for three days. Survival assay was carried out as described using MTS assay kit. Percentage of cell survival plotted against concentration of drugs (Mean+/−SEM).
FIG. 2. Effect of fenretinide peptidomimitic derivatives on the survival of rhabdoid tumor cells in culture. % survival of MON rhabdoid tumor cells treated with fenretinide derivatives, when compared to the vehicle treated control. The data in all the panels represent the average of triplicate experiments, and the standard error is indicated.
(§1) The rhabdoid cell line (MON) (88) was cultured in RPMI 1640 supplemented with 10% fetal bovine serum, 2 mM L-glutamine, 50 U/ml penicillin, and 50 μg/ml streptomycin at 37° C. with 5% CO2 and 95% humidified air. 4-(Fenretinide) was either obtained from NCI or synthesized in house. Fenretinide or its synthetic derivatives were reconstituted in 100% ethanol as a 10 mM solution and the aliquots were stored frozen at −80° C., protected from light. Working solutions (50 μM or 200 μM) and serial dilutions were prepared by diluting the stock solution with culture medium, such that the concentration of ethanol was <2% in all dilutions.
Aliquots of 8×10^3 MON cells were plated in 96-well microdilution plates. Twenty four hours after seeding, the cells were treated with serial dilutions of each drug. Following incubation for 24 or more hours, each well was stained with 20 μl of MTS [3-(4,5-dimethylthiazol-2-yl)-5-(3-carboxymethoxyphenyl)-2-(4-sulfophenyl)-2H-tetrazolium, inner salt] that was mixed 20:1 V/V in PMS (phenazine methosulphate, CellTiter 96® AQueous Non-Radioactive Cell Proliferation Assay Kit, Promega, Madison, Wis.) added to each of the well in the microtiter plate containing 100 μl of culture medium. After 4 h incubation, the plates were analyzed by an ELISA plate reader (Wallac Victor, 1420 Multilabel Counter, Perkin Elmer) at 490 nm wave-length. Cell plating, drug treatment and survival assay were performed using the epMotion 5070 automated liquid handling robotic system (Eppendorff, Westbury, N.Y.).
Statistical analysis of the data was carried out using GraphPad Prism (San Diego, Calif.). Relative IC50 values were calculated using the nonlinear regression curve fit with sigmoidal dose response (variable slope) function. Relative IC50 is defined as the concentration giving a response exactly half way between the fitted top and bottom of the survival curve when graphed as percent inhibition versus the log of the concentration of compound. The fitting error, or standard error describes the error involved in fitting the curve.
(Formazan colour is commonly taken as a measure of viable cells.)

The subject of another data set is Cyclin D1. Put plainly: Immunoblot analysis of Cyclin D1 expression. The note with it: biomarker expression, Table 3. The class given is cell-based. Here is the method:
FIG. 5A-5B. Effect of fenretinide, its derivatives and peptidomimetic compounds on expression of Cyclin D1. Immunoblot analysis to determine the effect of fenretinide and its halogen substitutes (A) and peptidomimetic compounds (B). GAPDH is a loading control.
This assay was performed using a routine laboratory protocol as previously described using chemiluminescence detection method (30). The following antibodies were used: polyclonal α-cyclin D1 Ab-3 (NeoMarkers, Cat# RB-010-P0), monoclonal α-cyclin D1 DCS-6 (NeoMarkers, Cat# MS-210-P1), α-β-Actin (Sigma Cat# A5441) and α-Tubulin-α (Sigma, Cat # T5168).
(§2) The effects of fenretinide, halogen substitutes, and peptidomimetic derivatives on cell cycle regulation and apoptosis were tested by using: i) cell survival assay (MTS); ii) FACS analysis; and iii) immunoblot analysis to determine the effect on Cyclin D1.
For orientation: In western blotting, separated proteins are transferred to a membrane and probed.

The next data set deals with MON cells. Put plainly: FACS analysis of cell cycle and sub-G1 (apoptosis). In kind it is cell-based. As to conditions: 2 days. Here is the method: FIG. 3A-3B. Induction of cell cycle arrest and apoptosis by halogen derivatives of fenretinide. A. Cell cycle profile determined by FACS analysis of MON cells treated with either 5 or 10 μM concentrations of fenretinide and its derivatives for 2 days. Percentage of cells at various stages of cell cycle (G1, S and G2) is indicated. B. Percentage of MON cells at sub-G1 when exposed for 2 days to fenretinide and its derivatives.
FIG. 4A-4B. Induction of cell cycle arrest and apoptosis by peptidomimetic derivatives of fenretinide. A. Cell cycle profile determined by FACS analysis of MON cells treated with either 5 or 10 μM concentrations of fenretinide and its derivatives for 2 days. Percentage of cells at various stages of cell cycle (G1, S and G2) is indicated. B. Percentage of MON cells at sub-G1 when exposed for 2 days to fenretinide and its derivatives.
as §2
For orientation: A flow cytometer gives signals particle by particle.

The test system of data set [2] is MON (INI1−/−) rhabdoid tumor cells. Put plainly: MTS survival assay of rhabdoid tumor cells. The class given is cell-based. The note with it: charcoal adsorbed serum.
For a further data set, the system named is tumor cell. The note with it: in vitro, literature (ref 1); read-out: IC50s, suppression of tumor cell growth in vitro; cited from earlier work.
For data set [3] the following is noted: 200 mg/day (MTD), breast cancer patients, literature (ref 3); cited from earlier work.
Data set [4] is described as follows: Precipitation / solubility in cell culture medium. The class given is physicochemical. Here is the method:
as §1

Setting [5] is: MON cells, nonlinear regression, sigmoidal dose response, read-out: Relative IC50.
[6] abbreviates: MON rhabdoid cells, survival assay, values in text, read-out: IC50.
Where [7] appears, read: regular FBS, read-out: IC50 (in regular FBS).

Read-outs that look alike come from different tables or passages of the source.

`CC1=C(/C=C/C(C)=C/C=C/C(C)=C/C(=O)Nc2ccc(O)cc2)C(C)(C)CCC1` [Compound 4-HPR, N-(4-hydroxyphenyl)retinamide, reference compound]: the IC50 is 14.7 µM in data set [1] (setting [5]); 19 µM in data set [1] (MON cells, three days, compounds in FIG. 1A-1D, concentration of drug required to kill 50% of cells, read-out: IC50); approximately 15 µM in data set [1] (setting [6]); 12 to 19 µM in data set [1] (setting [7]); 2 µM in data set [2]; 1 to 10 µM with tumor cell. In addition, in the data set with Cyclin D1, the “Repression of Cyclin D1” value is “Yes”. For the same molecule, the “% G1” value in the data set with MON cells (5 μM, Table 5) worked out at 86.32%; with MON cells (5 μM, Table 6) it was 86.32%; in the data set on MON cells (10 μM, Table 5), 85.41%; in the data set with MON cells (10 μM, Table 6) it was 85.41%. Further, the “% G2” value in the data set on MON cells (5 μM, Table 5) is on record as 6.73%; with MON cells (5 μM, Table 6) it was 6.49%; in the data set on MON cells (10 μM, Table 5), 6.66%; with MON cells (10 μM, Table 6), 7.60%. Further, the “% S” value in the data set on MON cells (5 μM, Table 5) worked out at 6.95%; in the data set with MON cells (5 μM, Table 6), 6.95%; with MON cells (10 μM, Table 5), 7.93%; in the data set on MON cells (10 μM, Table 6) it was 8.02%. In addition, the “SubG1 (percentage of MON cells at sub-G1)” value with MON cells (5 μM, Table 5) is reported as 37.12%; with MON cells (5 μM, Table 6) it was 37.12%; with MON cells (10 μM, Table 5), 73.98%; in the data set on MON cells (10 μM, Table 6), 73.98%. Besides, in data set [3], the plasma concentration was 1000 nM.

Turning to `CCC1=C(C)/C(=C/c2ccc(C(=O)Nc3ccc(O)c(I)c3)cc2)CCC1(C)C` [Compound 11d, (E)-4-((3-ethyl-2,4,4-trimethylcyclohex-2-enylidene)methyl)-N-(4-hydroxy-3-iodophenyl)benzamide], the figures for the IC50 in data set [1] (setting [5]) and in data set [1] (setting [6]) were 3.15 µM and 3 µM, respectively. The “cytotoxic activity against rhabdoid tumor cells (in words)” value in data set [1] (compared with 4-HPR) is “more active when compared to parent Fenretinide”. Also, in data set [4], the “behaviour in cell culture medium (precipitation / insolubility)” value (shortened to “behaviour … (precipitation / insolubility)”) was “did not show any precipitation”.

Turning to `CCC1=C(C)/C(=C/c2ccc(C(=O)Nc3ccc(O)cc3)cc2)CCC1(C)C` [Compound 11a, (E)-4-((3-ethyl-2,4,4-trimethylcyclohex-2-enylidene)methyl)-N-(4-hydroxyphenyl)benzamide], in the data set on MON cells (5 μM, Table 6), the “% G1” value was found to be 59.33%, the “% G2” value was 26.19%, the “% S” value is listed as 14.49% and the “SubG1 (percentage of MON cells at sub-G1)” value is on record as 53.97%. Moreover, in the data set on MON cells (10 μM, Table 6), the “% G1” value stood at 60.40%, the “% G2” value worked out at 22.84%, the “% S” value came to 16.76% and the “SubG1 (percentage of MON cells at sub-G1)” value is 62.59%. In data set [4], the “behaviour … (precipitation / insolubility)” value is on record as “precipitated in cell culture medium”.

With `COc1ccc(NC(=O)/C=C(C)/C=C/C=C(C)/C=C/C2=C(C)CCCC2(C)C)cc1` [5(f), (2E,4E,6E,8E)-[3,7-Dimethyl-9-(2,6,6-trimethyl-1-cyclohexenyl)-nona-2,4,6,8-tetraenoylamino]-(4-methoxy)phenylamide], in data set [4], the “behaviour … (precipitation / insolubility)” value is “insoluble in cell culture medium”.

As to “(2E,4E,6E,8E)-[3,7-Dimethyl-9-(2,6,6-trimethyl-1-cyclohexenyl)-nona-2,4,6,8-tetraenoylamino]-(3-nitro, 4-hydroxy)phenylamide [5(k)]”, the “behaviour … (precipitation / insolubility)” value in data set [4] was “insoluble in cell culture medium”.

Turning to `CC1=C(/C=C/C(C)=C/C=C/C(C)=C/C(=O)Nc2ccc(I)cc2)C(C)(C)CCC1` [5(d), (2E,4E,6E,8E)-[3,7-Dimethyl-9-(2,6,6-trimethyl-1-cyclohexenyl)-nona-2,4,6,8-tetraenoylamino]-(4-iodo)phenylamide], the IC50 was more than 50 µM in data set [1] (setting [7]) and more than 15 µM in data set [2]. In addition, the “behaviour … (precipitation / insolubility)” value in data set [4] is recorded as “precipitated in cell culture medium”.
